Data reported in ChEMBL document CHEMBL1201862, “PubChem BioAssay data set” (2004).
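Method: 48-hour compound exposure of cells in 96-well plates, five concentrations, linear interpolation of endpoints. GI50 is the concentration that inhibits growth by half.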 Calls of active or inactive are those of the source. Cut-off read from the data, not from the text of the source: active = GI50 up to about 1.1 µM and inactive = higher.

Columns and labels:
Test in all cases: inhibition of tumour cell growth, NCI panel, 48 h
786-0 = tested on: 786-0
CAKI-1 = tested on: CAKI-1
DU-145 = tested on: DU-145
HCC 2998 = tested on: HCC 2998
HL-60 = tested on: HL-60
HOP-92 = tested on: HOP-92
Hs-578T = tested on: Hs-578T
MCF7 = tested on: MCF7
MDA-MB-231 = tested on: MDA-MB-231
MDA-MB-435 = tested on: MDA-MB-435
MDA-N = tested on: MDA-N
NCI-H522 = tested on: NCI-H522
NCI/ADR-RES = tested on: NCI/ADR-RES
PC-3 = tested on: PC-3
SK-OV-3 = tested on: SK-OV-3
SNB-75 = tested on: SNB-75
SR = tested on: SR
A498 = tested on: A498
RXF 393 = tested on: RXF 393

| SMILES | GI50 (786-0) | GI50 (CAKI-1) | GI50 (DU-145) | GI50 (HCC 2998) | GI50 (HL-60) | GI50 (HOP-92) | GI50 (Hs-578T) | GI50 (MCF7) | GI50 (MDA-MB-231) | GI50 (MDA-MB-435) | GI50 (MDA-N) | GI50 (NCI-H522) | GI50 (NCI/ADR-RES) | GI50 (PC-3) | GI50 (SK-OV-3) | GI50 (SNB-75) | GI50 (SR) | GI50 (A498) | GI50 (RXF 393) |
| --- | --- | --- | --- | --- | --- | --- | --- | --- | --- | --- | --- | --- | --- | --- | --- | --- | --- | --- | --- |
| CC(NC(=O)c1ccc(OP(=O)(OCC2=CC(=O)c3ccccc3C2=O)N(C)CCCCCl)cc1)c1ccc(OCC2CCCCC2)c(C(N)=O)c1 (centres undefined) | 14.6 µM (inactive) | 9.44 µM (inactive) | 3.5 µM (inactive) | 0.0149 µM (active) | 14.5 µM (inactive) | 0.0244 µM (active) | 2.52 µM (inactive) | 11.4 µM (inactive) | 8.99 µM (inactive) | 2.47 µM (inactive) | 2.72 µM (inactive) | 11.8 µM (inactive) | 14.8 µM (inactive) | 14.2 µM (inactive) | 15.4 µM (inactive) | 0.0122 µM (active) | 12.6 µM (inactive) | – | – |
| CCOC(=O)c1ccc(C(=O)C(C(C)=O)C(=O)OC(C)(C)C)[nH]1 (centres undefined) | > 100 µM (inactive) | > 100 µM (inactive) | > 100 µM (inactive) | > 100 µM (inactive) | > 100 µM (inactive) | – | > 100 µM (inactive) | > 100 µM (inactive) | > 100 µM (inactive) | > 100 µM (inactive) | > 100 µM (inactive) | > 100 µM (inactive) | > 100 µM (inactive) | > 100 µM (inactive) | > 100 µM (inactive) | > 100 µM (inactive) | > 100 µM (inactive) | > 100 µM (inactive) | > 100 µM (inactive) |
| O=C1OC(c2ccc(O)cc2)(c2ccc(O)cc2)c2ccc(Cl)c3cccc1c23.O=C1OC(c2ccc(O)cc2)(c2ccc(O)cc2)c2cccc3c(Cl)ccc1c23 | – | 8.51 µM (inactive) | 75 µM (inactive) | – | – | 24.2 µM (inactive) | 12.1 µM (inactive) | 13.6 µM (inactive) | 10.7 µM (inactive) | 9.46 µM (inactive) | 11.8 µM (inactive) | – | 11.7 µM (inactive) | 3.48 µM (inactive) | 19.2 µM (inactive) | – | 9.04 µM (inactive) | 19.1 µM (inactive) | 10.8 µM (inactive) |
| CC(=O)c1nccc2c1c(C)nc1ccccc12 | – | 30.3 µM (inactive) | > 100 µM (inactive) | – | 67.8 µM (inactive) | 25.8 µM (inactive) | 30.3 µM (inactive) | 39.7 µM (inactive) | 38.3 µM (inactive) | > 100 µM (inactive) | 53.6 µM (inactive) | 47.5 µM (inactive) | > 100 µM (inactive) | 85.1 µM (inactive) | > 100 µM (inactive) | > 100 µM (inactive) | 26.4 µM (inactive) | 48 µM (inactive) | 38.5 µM (inactive) |
| O=C1CSC(c2ccc(Cl)cc2Cl)N1c1ccc(Oc2ccc(Cl)cc2)c(Cl)c1 (centres undefined) | 17.5 µM (inactive) | 22.4 µM (inactive) | 32.1 µM (inactive) | 31 µM (inactive) | 16.4 µM (inactive) | 21.8 µM (inactive) | 14.7 µM (inactive) | 33.2 µM (inactive) | 19.4 µM (inactive) | 12.6 µM (inactive) | 21.7 µM (inactive) | 10.4 µM (inactive) | 21.6 µM (inactive) | 27.8 µM (inactive) | 30.7 µM (inactive) | 20.7 µM (inactive) | 16.3 µM (inactive) | – | – |
| O=C(CC(=O)Nc1ccc(C(=O)O)cc1)Nc1ccc(C(=O)O)cc1 | > 100 µM (inactive) | > 100 µM (inactive) | > 100 µM (inactive) | > 100 µM (inactive) | > 100 µM (inactive) | > 100 µM (inactive) | > 100 µM (inactive) | > 100 µM (inactive) | > 100 µM (inactive) | > 100 µM (inactive) | > 100 µM (inactive) | > 100 µM (inactive) | > 100 µM (inactive) | > 100 µM (inactive) | > 100 µM (inactive) | – | > 100 µM (inactive) | > 100 µM (inactive) | – |
| CCOP(=O)(OCC)C(Cc1c[nH]c2ccccc12)C(=O)O (centres undefined) | – | > 100 µM (inactive) | > 100 µM (inactive) | > 100 µM (inactive) | > 100 µM (inactive) | > 100 µM (inactive) | > 100 µM (inactive) | 37.2 µM (inactive) | > 100 µM (inactive) | > 100 µM (inactive) | > 100 µM (inactive) | > 100 µM (inactive) | > 100 µM (inactive) | > 100 µM (inactive) | > 100 µM (inactive) | > 100 µM (inactive) | > 100 µM (inactive) | > 100 µM (inactive) | – |
| CCN(CC)c1ccc2cc(C(=O)Nc3nc(C45CC6CC(CC(C6)C4)C5)cs3)c(=O)oc2c1 | > 100 µM (inactive) | > 100 µM (inactive) | > 100 µM (inactive) | > 100 µM (inactive) | > 100 µM (inactive) | > 100 µM (inactive) | > 100 µM (inactive) | > 100 µM (inactive) | > 100 µM (inactive) | > 100 µM (inactive) | > 100 µM (inactive) | > 100 µM (inactive) | > 100 µM (inactive) | > 100 µM (inactive) | – | – | > 100 µM (inactive) | > 100 µM (inactive) | > 100 µM (inactive) |
